# Test results from the NIST ThermoML archive (doi:10.1016/j.tca.2009.08.016).
# Numbers after ± are expanded uncertainties.
# Experiments:
# [1] = Molar enthalpy of transition or fusion; conditions: Crystal; DSC
# [2] = Crystal; DTA
Molar enthalpy of transition or fusion [1],Normal melting temperature [2],Structure (SMILES)
16.4 ± 0.5 kJ/mol,67.54 ± 1.1 °C,"CCN(CC)CC(=O)Nc1c(C)cccc1C [2-(diethylamino)-N-(2,6-dimethylphenyl)acetamide]"
19.2 ± 1 kJ/mol,41.93 ± 1.1 °C,O=C(Oc1ccccc1)c1ccccc1O [phenyl salicylate]
